Patent publication US6342601B1, “Compounds” (AstraZeneca AB, priority 1997, dated 2002)
Counter-ions that a name gives are not always drawn.

| Compound | melting point |
| --- | --- |
| CC(C)Cc1nn(C)c(=O)c2cn(Cc3cccc4ccccc34)cc12 [Example 1, 2,6-Dihydro-2-methyl-4-(2-methylpropyl)-6-(1-naphthalenylmethyl)-1H-pyrrolo[3,4-d]pyridazin-1-one] | 110 to 112 °C |
| COCCn1nc(CC(C)C)c2cn(Cc3cccc4ccccc34)cc2c1=O [Example 2, 2,6-Dihydro-2-(2-methoxyethyl)-4-(2-methylpropyl)-6-(1-naphthalenylmethyl)-1H-pyrrolo[3,4-d]pyridazin-1-one] | 96 to 98 °C |
| CC(C)Cc1nn(C)c(=O)c2c(SCCCC(=O)O)n(Cc3cccc4ccccc34)cc12 [Example 4, 4-{[2,6-Dihydro-2-methyl-4-(2-methylpropyl)-6-(1-naphthalenylmethyl)-1-oxo-1H-pyrrolo[3,4-d]pyridazin-7-yl]thio}butanoic Acid] | 167 °C |
| CC(C)Cc1nn(C)c(=O)c2c([S+]([O-])CCCO)n(Cc3cccc4ccccc34)cc12 (stereo not drawn) [Example 5 (A), 2,6-Dihydro-7-[(3-hydroxypropyl)sulfinyl]-2-methyl-4-(2-methylpropyl)-6-(1-naphthalenylmethyl)-1H-pyrrolo[3,4-d]pyridazin-1-one] | 164 to 166 °C |
| CC(C)Cc1nn(C)c(=O)c2cc(C(O)c3cccc4ccccc34)sc12 (stereo not drawn) [Example 6, 2-[1-Hydroxy-1-(1-naphthalenyl)methyl]-5-methyl-7-(2-methylpropyl)thieno[2,3-d]pyridazin-4(5H)-one] | 165 to 167 °C |
| CC(C)Cc1nn(C)c(=O)c2cc(C(=O)c3cccc4ccccc34)sc12 [Example 9, 5-Methyl-7-(2-methylpropyl)-2-(1-naphthalenylcarbonyl)thieno[2,3-d]pyridazin-4(5H)-one] | 121 °C |
| CC(C)Cc1nn(C)c(=O)c2c([S+]([O-])CCCO)c(Cc3cccc4ccccc34)sc12 (stereo not drawn) [Example 10, 3[(3-Hydroxypropyl)sulfinyl]-5-methyl-7-(2-methylpropyl)-2-(1-naphthalenylmethyl)thieno[2,3-d]pyridazin-4(5H)-one] | 60 to 65 °C |
| CC(C)Cc1nn(C)c(=O)c2c(SCCCC(=O)O)c(Cc3cccc4ccccc34)sc12 [Example 11, 4-{[4,5-Dihydro-5-methyl-7-(2-methylpropyl)-2-(1-naphthalenylmethyl)-4-oxothieno[2,3-d]pyridazin-3-yl]thio}butanoic Acid] | 154 to 156 °C |
| CC(C)Cc1nn(C)c(=O)c2c(S(=O)(=O)CCCO)c(Cc3cccc4ccccc34)sc12 [Example 13, 3-[(3-Hydroxypropyl)sulfonyl]-5-methyl-7-(2-methylpropyl)-2-(1-naphthalenylmethyl)thieno[2,3-d]pyridazin-4(5H)-one] | 160 to 163 °C |
| CC(C)Cc1nn(C)c(=O)c2cc(Cc3ccccc3)sc12 [Example 15, 5-Methyl-7-(2-methylpropyl)-2-phenylmethylthieno[2,3-d]pyridazin-4(5H)-one] | 97 to 98 °C |
| CC(C)Cc1nn(C)c(=O)c2c(SCCCO)c(Cc3ccccc3)sc12 [Example 16, 3-[(3-Hydroxypropy)thio]-5-methyl-7-(2-methylpropyl)-2-phenylmethylthieno[2,3-d]pyridazin-4(5H)-one] | 60 to 65 °C |
| CC(C)Cc1nn(C)c(=O)c2c(S(=O)(=O)CCCO)c(Cc3ccccc3)sc12 [Example 17, 3-[(3-Hydroxypropyl)sulfonyl]-5-methyl-7-(2-methylpropyl)-2-phenylmethylthieno[2,3-d]pyridazin-4(5H)-one] | 105 to 107 °C |
| CC(C)Cc1nn(C)c(=O)c2cn(Cc3ccccc3)cc12 [Example 18, 2,6-Dihydro-2-methyl-4-(2-methylpropyl)-6-phenylmethyl-1H-pyrrolo[3,4-d]pyridazin-1-one] | 104 °C |
| CC(C)Cc1nn(C)c(=O)c2c(Sc3ccccn3)n(Cc3ccccc3)cc12 [Example 19, 2,6-Dihydro-2-methyl-4-(2-methylpropyl)-6-phenylmethyl-7-(2-pyridinylthio)-1H-pyrrolo[3,4-d]pyridazin-1-one] | 131 to 132 °C |
| CC(C)Cc1nn(C)c(=O)c2c(SCCCO)n(Cc3ccccc3)cc12 [Example 20, 2,6-Dihydro-7-[(3-hydroxypropyl)thio]-2-methyl-4-(2-methylpropyl)-6-phenylmethyl-1H-pyrrolo[3,4-d]pyridazin-1-one] | 91 to 92 °C |
| COc1cc(Cn2cc3c(CC(C)C)nn(C)c(=O)c3c2)cc(OC)c1OC [Example 21, 2,6-Dihydro-2-methyl-4-(2-methylpropyl)-6-(3,4,5-trimethoxyphenyl)methyl-1H-pyrrolo[3,4-d]pyridazin-1-one] | 154.5 to 155 °C |
| CC(C)Nc1nn(C)c(=O)c2cn(Cc3cccc4ccccc34)cc12 [Example 22, 2,6-Dihydro-2-methyl-6-(1-naphthalenylmethyl)-4-(1-methylethyl)amino-1H-pyrrolo[3,4-d]pyridazin-1-one] | 221 to 222 °C |
| CC(C)Cc1nn(C)c(=O)c2cn(Cc3ccncc3)cc12 [Example 23, 2,6-Dihydro-2-methyl-4-(2-methylpropyl)-6-(4-pyridinyl)methyl-1H-pyrrolo[3,4-d]pyridazin-1-one] | 91 to 93 °C |

Continued, values first:

| melting point | Compound |
| --- | --- |
| 154 to 156 °C | CC(C)Cc1nn(C)c(=O)c2cc(C(O)c3cccnc3)sc12 (stereo not drawn) (as salt: hydrochloride) [Example 40, 2-[(1-Hydroxy-1-pyridin-3-yl)methyl]-5-methyl-7-(2-methylpropyl)thieno[2,3-d]pyridazin-4(5H)-one Hydrochloride] |
| > 230 °C (dec.) | CC(C)Cc1nn(C)c(=O)c2cc(Cc3cnc4ccccc4c3)sc12 (as salt: hydrochloride) [Example 44, 5-Methyl-7-(2-methylpropyl)-2-(3-quinolinylmethyl)thieno[2,3-d]pyridazin-4(5H)-one Hydrochloride] |
| 166 to 167 °C | CC(C)Cc1nn(C)c(=O)c2cn(Cc3cccc4ccccc34)nc12 [Example 32, 2,5-Dihydro-5-methyl-7-(2-methylpropyl)-2-(1-naphthalenylmethyl)-4H-pyrazolo[3,4-d]pyridazin-4-one] |
| 163 to 164 °C | CC(C)Cc1nn(C)c(=O)c2nn(Cc3cccc4ccccc34)cc12 [Example 33] |
| 141 to 142 °C | CC(C)Cc1nn(C)c(=O)c2c(SCCCO)n(Cc3cccc4ccccc34)nc12 [Example 34, 2,5-Dihydro-3-[(3-hydoxypropyl)thio]-5-methyl-7-(2-methylpropyl)-2-(1-naphthalenylmethyl)-4H-pyrazolo[3,4-d]pyridazin-4-one] |
| 110 to 112 °C | CC(C)Cc1nn(C)c(=O)c2cc(C(O)c3cccc4ccccc34)oc12 (stereo not drawn) [Example 35, 2-[1-Hydroxy-1-(1-naphthalenyl)methyl]-5-methyl-7-(2-methylpropyl)furo[2,3-d]pyridazin-4(5H)one] |
| 73 to 75 °C | CC(C)Cc1nn(C)c(=O)c2cc(Cc3cccc4ccccc34)oc12 [Example 36, 5-Methyl-7-(2-methylpropyl)-2-(1-naphthalenylmethyl)furo[2,3-d]pyridazin-4(5H)one] |
| 106 to 108 °C | CC(C)Cc1nn(C)c(=O)c2cc(C(O)c3cccc(C#N)c3)oc12 (stereo not drawn) [Example 37, 2-[1-Hydroxy-1-(3-cyanophenyl)methyl]-5-methyl-7-(2-methylpropyl)furo[2,3-d]pyridazin4(5H)one] |
| 76 to 78 °C | CC(C)Cc1nn(C)c(=O)c2cc(Cc3cccc(C#N)c3)oc12 [Example 38, 2-(3-Cyanophenyl)methyl-5-methyl-7-(2-methylpropyl)furo[2,3-d]pyridazin-4(5H)one] |
| 112 to 114 °C | CC(C)Cc1nn(C)c(=O)c2cc(Cc3ccccc3C(F)(F)F)sc12 [Example 39, 2-(2-Trifluoromethylphenyl)methyl-5-methyl-7-(2-methylpropyl)thieno[2,3-d]pyridazin-4(5H)-one] |
| 118 to 119 °C | CC(C)Cc1nn(C)c(=O)c2cc(Cc3cccnc3)sc12 [Example 41, 5Methyl-7-(2-methylpropyl)-2-(3-pyridinylmethyl)thieno[2,3-d]pyridazin-4(5H)-one] |
| 85 to 86 °C | CC(C)Cc1nn(C)c(=O)c2cc(Cc3c(F)cccc3Cl)sc12 [Example 42, 2-(2-Chloro-6-fluorophenyl)methyl-5-methyl-7-(2-methylpropyl)thieno[2,3-d]pyridazin-4(5H)-one] |
